In BindingDB's records for patent US20260062376 (Research Triangle Institute, 2026) one finds IC50 data, which are given here for 17 compounds.

Structures are written as SMILES.

For the assay, the target named is Cannabinoid receptor 1 (Mus musculus, UniProt P47746). The assay is described as follows: [35S]GTPγS Binding Assay. Here is the method: For receptor signaling, membranes (10 μg protein) from either ICR mouse cerebellum mice (6-8 weeks old; Enviga International, Indianapolis, Indiana, United States of America) or HEK cells stably expressing CB1 receptor were preincubated in assay buffer for 10 min with 3 units/ml adenosine deaminase then incubated for 60 min at 30° C. with 30 μM GDP and 0.1 nM [35S]GTPγS (Perkin Elmer Life Sciences, Boston, Massachusetts, United States of America). Non-specific binding was determined by adding 30 μM unlabeled GTPγS.
Sequence of Cannabinoid receptor 1 (P47746 whole entry): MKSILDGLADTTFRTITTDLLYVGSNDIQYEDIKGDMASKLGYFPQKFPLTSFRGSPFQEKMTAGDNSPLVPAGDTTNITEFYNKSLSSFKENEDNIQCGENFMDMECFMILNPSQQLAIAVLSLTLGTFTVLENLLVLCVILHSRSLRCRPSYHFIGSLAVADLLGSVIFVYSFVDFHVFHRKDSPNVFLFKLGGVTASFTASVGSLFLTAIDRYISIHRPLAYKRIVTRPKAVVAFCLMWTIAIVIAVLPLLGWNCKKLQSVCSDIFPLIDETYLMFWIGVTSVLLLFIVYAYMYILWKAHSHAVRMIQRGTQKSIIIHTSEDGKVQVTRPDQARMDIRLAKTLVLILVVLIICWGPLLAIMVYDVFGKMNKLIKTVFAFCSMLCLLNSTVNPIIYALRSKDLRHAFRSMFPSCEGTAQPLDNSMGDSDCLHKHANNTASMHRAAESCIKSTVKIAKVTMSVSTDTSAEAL
`O=c1c(NCCc2cccs2)c(Nc2ccc(Cl)cc2)c1=O` [US20260062376, Compound 39] gave an IC50 of 1350 nM. As for `CN(C)c1cccc(CCNc2c(Nc3ccc(Cl)cc3)c(=O)c2=O)c1` [US20260062376, Compound 26], the IC50 amounted to 1100 nM.

As for `CCN(CC)c1ccc(CCNc2c(Nc3ccc(Cl)cc3)c(=O)c2=O)cc1` [US20260062376, Compound 48], the half-inhibitory concentration (IC50) is 468 nM. `Cc1ccc(CCNc2c(Nc3ccc(Cl)cc3)c(=O)c2=O)cc1C` [US20260062376, Compound 42]: the IC50 was 331 nM. `Cc1cccc(CCNc2c(Nc3ccc(Cl)cc3)c(=O)c2=O)c1` [US20260062376, Compound 14] registered an IC50 of 166 nM. Turning to `CN(C)c1ccc(CCNc2c(Nc3ccc(Cl)cc3)c(=O)c2=O)cc1` [US20260062376, Compound 27], the half-maximal inhibitory concentration (IC50) is 40.7 nM.

For `O=c1c(NCCc2cccc(O)c2)c(Nc2ccc(Cl)cc2)c1=O` [US20260062376, Compound 43], the IC50 stood at 4790 nM. In turn, `O=c1c(NCCc2ccc(Cl)cc2)c(Nc2ccc(Cl)cc2)c1=O` [US20260062376, Compound 13] yielded an IC50 of 275 nM. With `Cc1ccc(CCNc2c(Nc3ccc(Cl)cc3)c(=O)c2=O)cc1` [US20260062376, Compound 15], the IC50 amounted to 81.3 nM. The compound `O=c1c(NCCc2ccc(Br)cc2)c(Nc2ccc(Cl)cc2)c1=O` [US20260062376, Compound 38] gave an IC50 of 871 nM. In turn, `O=c1c(NCCc2cccc(Cl)c2)c(Nc2ccc(Cl)cc2)c1=O` [US20260062376, Compound 7] gave an IC50 of 229 nM.

On to `O=c1c(NCCc2ccc(Cl)c(Cl)c2)c(Nc2ccc(Cl)cc2)c1=O` [US20260062376, Compound 41], for which the IC50 worked out at 295 nM.

Compound `Cc1ccccc1CCNc1c(Nc2ccc(Cl)cc2)c(=O)c1=O` [US20260062376, Compound 35] gave an IC50 of 2690 nM.

Consider `O=c1c(NCCc2ccc(Cl)cc2Cl)c(Nc2ccc(Cl)cc2)c1=O` [US20260062376, Compound 44], for which the concentration for half-maximal inhibition (IC50) stood at 525 nM. In turn, `O=c1c(NCCc2ccccn2)c(Nc2ccc(Cl)cc2)c1=O` [US20260062376, Compound 36] displayed a concentration for half-maximal inhibition (IC50) of 1780 nM. As to `O=c1c(NCCc2ccccc2F)c(Nc2ccc(Cl)cc2)c1=O` [US20260062376, Compound 24], the IC50 is 661 nM. On to `O=c1c(NCCc2cccc(F)c2)c(Nc2ccc(Cl)cc2)c1=O` [US20260062376, Compound 25], for which the IC50 was found to be 240 nM.
